{"source": "the NIST ThermoML archive (doi:10.1021/je1007235)", "key": {"[1]": {"conditions": "101.33 kPa, Liquid"}, "[2]": {"assay": "wn = mass fraction of the nth substance listed", "conditions": "298.15 K, 101.3 kPa, Liquid"}}, "note": "± gives the expanded uncertainty stated by the source."}
{"compound": "CC(=O)[O-].CCn1cc[n+](C)c1", "note": "[1-ethyl-3-methylimidazolium acetate]", "values": [{"measurement": "viscosity", "setting": "[1]; 298.15 K", "value": "162 ± 21", "unit": "mPa·s"}, {"measurement": "viscosity", "setting": "[1]; 353.15 K", "value": "17 ± 2", "unit": "mPa·s"}, {"measurement": "viscosity", "setting": "[1]; 373.1 K", "value": "9 ± 2", "unit": "mPa·s"}, {"measurement": "viscosity", "setting": "[1]; 393.15 K", "value": "5 ± 2", "unit": "mPa·s"}]}
{"compound": "CCCCn1cc[n+](C)c1.[Cl-]", "note": "[1-butyl-3-methylimidazolium chloride]", "values": [{"measurement": "viscosity", "setting": "[1]; 353.15 K", "value": "142 ± 17", "unit": "mPa·s"}, {"measurement": "viscosity", "setting": "[1]; 373.1 K", "value": "68 ± 3", "unit": "mPa·s"}, {"measurement": "viscosity", "setting": "[1]; 393.15 K", "value": "31 ± 2", "unit": "mPa·s"}]}
{"compound": "CC#N", "note": "[acetonitrile] + CC(=O)[O-].CCCCn1cc[n+](C)c1", "values": [{"measurement": "viscosity", "setting": "[2]; w1 = 1", "value": 0.34, "unit": "mPa·s"}]}
{"compound": "CC(=O)[O-].CCCCn1cc[n+](C)c1", "note": "[1-butyl-3-methylimidazolium acetate] + CC#N", "values": [{"measurement": "viscosity", "setting": "[2]; w2 = 0.089", "value": "148 ± 19", "unit": "mPa·s"}, {"measurement": "viscosity", "setting": "[2]; w2 = 0.213", "value": "27 ± 2", "unit": "mPa·s"}, {"measurement": "viscosity", "setting": "[2]; w2 = 0.389", "value": "5 ± 2", "unit": "mPa·s"}, {"measurement": "viscosity", "setting": "[2]; w2 = 0.593", "value": 2, "unit": "mPa·s"}]}
{"compound": "CCn1cc[n+](C)c1.[Cl-]", "note": "[1-ethyl-3-methylimidazolium chloride]", "values": [{"measurement": "viscosity", "setting": "[1]; 353.15 K", "value": "65 ± 3", "unit": "mPa·s"}, {"measurement": "viscosity", "setting": "[1]; 373.1 K", "value": "27 ± 2", "unit": "mPa·s"}, {"measurement": "viscosity", "setting": "[1]; 393.15 K", "value": "13 ± 2", "unit": "mPa·s"}]}
{"compound": "O", "note": "[water] + CC(=O)[O-].CCn1cc[n+](C)c1", "values": [{"measurement": "viscosity", "setting": "[2]; w1 = 1", "value": 0.89, "unit": "mPa·s"}]}
{"compound": "CC(=O)[O-].CCCCn1cc[n+](C)c1", "note": "[1-butyl-3-methylimidazolium acetate]", "values": [{"measurement": "viscosity", "setting": "[1]; 298.15 K", "value": "383 ± 85", "unit": "mPa·s"}, {"measurement": "viscosity", "setting": "[1]; 353.15 K", "value": "26 ± 2", "unit": "mPa·s"}, {"measurement": "viscosity", "setting": "[1]; 373.1 K", "value": "15 ± 2", "unit": "mPa·s"}, {"measurement": "viscosity", "setting": "[1]; 393.15 K", "value": "9 ± 2", "unit": "mPa·s"}]}
{"compound": "CCCCCCCC[n+]1ccn(C)c1.[Cl-]", "note": "[1-methyl-3-octylimidazolium chloride]", "values": [{"measurement": "viscosity", "setting": "[1]; 353.15 K", "value": "375 ± 82", "unit": "mPa·s"}, {"measurement": "viscosity", "setting": "[1]; 373.1 K", "value": "161 ± 21", "unit": "mPa·s"}, {"measurement": "viscosity", "setting": "[1]; 393.15 K", "value": "81 ± 5", "unit": "mPa·s"}]}
{"compound": "CC(=O)[O-].CCCCn1cc[n+](C)c1", "note": "[1-butyl-3-methylimidazolium acetate] + O", "values": [{"measurement": "viscosity", "setting": "[2]; w2 = 0.029", "value": "383 ± 88", "unit": "mPa·s"}, {"measurement": "viscosity", "setting": "[2]; w2 = 0.031", "value": "341 ± 74", "unit": "mPa·s"}, {"measurement": "viscosity", "setting": "[2]; w2 = 0.048", "value": "236 ± 41", "unit": "mPa·s"}, {"measurement": "viscosity", "setting": "[2]; w2 = 0.512", "value": "18 ± 2", "unit": "mPa·s"}, {"measurement": "viscosity", "setting": "[2]; w2 = 0.731", "value": "5 ± 2", "unit": "mPa·s"}]}
{"compound": "CCCCCCn1cc[n+](C)c1.[Cl-]", "note": "[1-hexyl-3-methylimidazolium chloride]", "values": [{"measurement": "viscosity", "setting": "[1]; 353.15 K", "value": "293 ± 57", "unit": "mPa·s"}, {"measurement": "viscosity", "setting": "[1]; 373.1 K", "value": "87 ± 6", "unit": "mPa·s"}, {"measurement": "viscosity", "setting": "[1]; 393.15 K", "value": "43 ± 3", "unit": "mPa·s"}]}
{"compound": "CC(=O)[O-].CCn1cc[n+](C)c1", "note": "[1-ethyl-3-methylimidazolium acetate] + O", "values": [{"measurement": "viscosity", "setting": "[2]; w2 = 0.023", "value": "122 ± 13", "unit": "mPa·s"}, {"measurement": "viscosity", "setting": "[2]; w2 = 0.045", "value": "81 ± 5", "unit": "mPa·s"}, {"measurement": "viscosity", "setting": "[2]; w2 = 0.084", "value": "57 ± 3", "unit": "mPa·s"}, {"measurement": "viscosity", "setting": "[2]; w2 = 0.192", "value": "32 ± 2", "unit": "mPa·s"}, {"measurement": "viscosity", "setting": "[2]; w2 = 0.374", "value": "12 ± 2", "unit": "mPa·s"}, {"measurement": "viscosity", "setting": "[2]; w2 = 0.556", "value": 4, "unit": "mPa·s"}]}
{"compound": "CC(=O)[O-].CCCCn1cc[n+](C)c1", "note": "[1-butyl-3-methylimidazolium acetate] + CN(C)C=O", "values": [{"measurement": "viscosity", "setting": "[2]; w2 = 0.062", "value": "231 ± 40", "unit": "mPa·s"}, {"measurement": "viscosity", "setting": "[2]; w2 = 0.191", "value": "54 ± 3", "unit": "mPa·s"}, {"measurement": "viscosity", "setting": "[2]; w2 = 0.389", "value": "11 ± 2", "unit": "mPa·s"}, {"measurement": "viscosity", "setting": "[2]; w2 = 0.606", "value": 4, "unit": "mPa·s"}]}
{"compound": "O", "note": "[water] + CC(=O)[O-].CCCCn1cc[n+](C)c1", "values": [{"measurement": "viscosity", "setting": "[2]; w1 = 1", "value": 0.89, "unit": "mPa·s"}]}
{"compound": "CN(C)C=O", "note": "[dimethylformamide] + CC(=O)[O-].CCCCn1cc[n+](C)c1", "values": [{"measurement": "viscosity", "setting": "[2]; w1 = 1", "value": 0.92, "unit": "mPa·s"}]}
{"compound": "CC(=O)[O-].CCCCn1cc[n+](C)c1", "note": "[1-butyl-3-methylimidazolium acetate] + OCCO", "values": [{"measurement": "viscosity", "setting": "[2]; w2 = 0.081", "value": "291 ± 58", "unit": "mPa·s"}, {"measurement": "viscosity", "setting": "[2]; w2 = 0.248", "value": "102 ± 9", "unit": "mPa·s"}, {"measurement": "viscosity", "setting": "[2]; w2 = 0.464", "value": "39 ± 2", "unit": "mPa·s"}, {"measurement": "viscosity", "setting": "[2]; w2 = 0.678", "value": "26 ± 2", "unit": "mPa·s"}]}
{"compound": "CCCCn1cc[n+](C)c1.N#CN=C=[N-]", "note": "[1-butyl-3-methylimidazolium dicyanamide]", "values": [{"measurement": "viscosity", "setting": "[1]; 298.15 K", "value": "31 ± 2", "unit": "mPa·s"}, {"measurement": "viscosity", "setting": "[1]; 353.15 K", "value": "11 ± 2", "unit": "mPa·s"}, {"measurement": "viscosity", "setting": "[1]; 373.1 K", "value": "6 ± 2", "unit": "mPa·s"}, {"measurement": "viscosity", "setting": "[1]; 393.15 K", "value": 4, "unit": "mPa·s"}]}
{"compound": "OCCO", "note": "[1,2-ethanediol] + CC(=O)[O-].CCCCn1cc[n+](C)c1", "values": [{"measurement": "viscosity", "setting": "[2]; w1 = 1", "value": "16.1 ± 2", "unit": "mPa·s"}]}
